Experimental data published in patent US8476197B2, “Aminopropenoates as fungicides” (priority 2009, dated 2013).
Marks after values point to notes of the source that are not given here.

Conditions: pH 2.7

SMILES	Log P
CCOC(=O)C(C#N)=C(NC(C)C1CCCO1)c1sccc1C(F)(F)F (mixture of isomers) [Compound 172]	3.55^[a]
COC(=O)C(C#N)=C(NC(C)C1CCCO1)c1sc(C)nc1C(F)(F)F (mixture of isomers) [Compound 178]	1.97^[a]
CCOC(=O)C(C#N)=C(NC(C)C1CCCO1)c1sccc1Br (mixture of isomers) [Compound 186]	3.35^[a]
CCOC(=O)C(C#N)=C(NC(C)c1ccc(Cl)s1)c1cccnc1Cl (mixture of isomers) [Compound 281]	3.8^[a]
CCOC(=O)C(C#N)=C(NC(C)c1nc(C(C)C)no1)c1cccnc1Cl (mixture of isomers) [Compound 282]	3.2^[a]
CCOC(=O)C(C#N)=C(NC(C)CN1CCCC1)c1cccnc1Cl (mixture of isomers) [Compound 283]	3.35^[a]
CCOC(=O)C(C#N)=C(NC(C)c1ccc(C(F)(F)F)cn1)c1cccnc1Cl (mixture of isomers) [Compound 285]	3.5^[a]
CCOC(=O)C(C#N)=C(NC(C)c1ncc(Br)cc1Cl)c1cccnc1Cl (mixture of isomers) [Compound 287]	3.9^[a]
CCOC(=O)C(C#N)=C(NC(C)c1ncc(C(F)(F)F)cc1Cl)c1cccnc1Cl (mixture of isomers) [Compound 288]	3.9^[a]
CCOC(=O)C(C#N)=C(NC(C)c1ccccn1)c1ccnc(Cl)c1Cl (mixture of isomers) [Compound 289]	3.04^[a]
CCOC(=O)C(C#N)=C(NC(C)c1cscn1)c1ccnc(Cl)c1Cl (mixture of isomers) [Compound 290]	2.92^[a]
CCOC(=O)C(C#N)=C(NC(C)c1nccs1)c1ccnc(Cl)c1Cl (mixture of isomers) [Compound 291]	2.96^[a]
CCOC(=O)C(C#N)=C(NC(C)c1ccccn1)c1cccnc1Cl (mixture of isomers) [Compound 292]	2.5^[a]
CCOC(=O)C(C#N)=C(NC(C)Cc1nccs1)c1cccnc1Cl (mixture of isomers) [Compound 294]	2.4^[a]
CCOC(=O)C(C#N)=C(NC(C)Cc1ccccn1)c1cccnc1Cl (mixture of isomers) [Compound 295]	1.82^[a]
CCOC(=O)C(C#N)=C(NC(C)Cc1cccnc1)c1cccnc1Cl (mixture of isomers) [Compound 296]	1.57^[a]
CCOC(=O)C(C#N)=C(NC(C)c1nccs1)c1ccncc1Br (mixture of isomers) [Compound 297]	2.4^[a]
CCOC(=O)C(C#N)=C(NC(C)c1cscn1)c1ccncc1Br (mixture of isomers) [Compound 298]	2.4^[a]
CCOC(=O)C(C#N)=C(NC(C)c1ccccn1)c1ccncc1Br (mixture of isomers) [Compound 299]	2.5^[a]
CCOC(=O)C(C#N)=C(NC(C)c1ccccn1)c1ccncc1F (mixture of isomers) [Compound 300]	2.28^[a]
CCOC(=O)C(C#N)=C(NC(C)c1cscn1)c1ccncc1F (mixture of isomers) [Compound 301]	2.22^[a]
CCOC(=O)C(C#N)=C(NC(C)Cc1nccs1)c1ccncc1F (mixture of isomers) [Compound 302]	2.19^[a]
CCOC(=O)C(C#N)=C(NC(C)c1cscn1)c1ccncc1C(F)(F)F (mixture of isomers) [Compound 303]	2.6^[a]
C=CCOC(=O)C(C#N)=C(NC(C)c1nccs1)c1cn(C)nc1C(F)F (mixture of isomers) [Compound 305]	2.59^[a]
C=CCOC(=O)C(C#N)=C(NC(C)c1ccccn1)c1cn(C)nc1C(F)F (mixture of isomers) [Compound 307]	2.56^[a]

Same assay, conditions: pH 7.5

SMILES	Log P
CC(NC(=C(C#N)C(=O)OC(C)C(F)(F)F)c1cccnc1Cl)c1nccs1 (mixture of isomers) [Compound 56]	2.94
CCOC(=O)C(C#N)=C(NC(C)c1nc(C(=O)N(C)C)cs1)c1cccnc1Cl (mixture of isomers) [Compound 304]	2.08
